These results are taken from patent publication US12479877B2, “Methods for purifying steviol glycosides and uses of the same” (PureCircle Sdn. Bhd., priority 2010, dated 2025).

Holding throughout (type): in vivo, human
Test [1] is described as follows: Beverage formulations: taste properties compared with Reb A.
Test [2] concerns semi-trained panel members. The experiment in a line: Sensory comparison of Reb X and Reb A, iso-sweet samples at 8% sucrose equivalent. Here is the method:
To compare the sensory attributes between Reb X and Reb A, iso-sweet samples having 8% sucrose equivalent sweetness were made with filtered water as shown in Table 8. An 8% sugar solution in water at room temperature was used as a control. An 8% sugar solution in the acidified solution was used as the control. The samples prepared with filtered water were evaluated by 34 semi-trained panel members at room temperature. The samples prepared with acidified water were evaluated by 23 semi-trained panel members at room temperature. Samples were given to the panel members sequentially and coded with triple digit numbers. The order of sample presentation was randomized to avoid order of presentation bias. Water and unsalted crackers were provided in order to cleanse the palate. The panel members were asked to rate different attributes including sweetness onset, total sweetness, rounded sweetness, bitterness, acidity, leafy note, licorice, astringency, mouthfeel, mouth coating, sweet lingering, and bitter lingering. Samples were rated on a scale of zero (0) to ten (10), with zero indicating immediate onset, no intensity, watery/low viscosity, or very sharp peak, and ten indicating very delayed onset, high intensity, thick/high viscosity, or very round peak. One-way single factor ANOVA was used to analyze sensory results, where α=0.05.

A further test has as its system panel of trained tasters. The experiment in a line: Reb X sweetness vs. concentration, matched to sucrose references. To be noted: for Reb X Concentration (ppm) matching sucrose reference: Reb X 98% purity, water at room temperature. Here is the method:
2.5%, 5.0%, 7.5%, and 10.0% sucrose solutions were prepared in neutral (7.0 pH) and acidified water (3.2 pH) as reference samples. Solutions containing Reb X (98% purity) were prepared to match the sweetness of each sucrose reference in neutral and acidified water. Samples were tasted and verified by a panel of trained tasters in water at room temperature.

Where [3] appears, read: acidified water (250 ppm citric acid, pH 3.2), 23 panel members, FIG. 12.
Where [4] appears, read: Sweetness Equivalent (SE) 10.0%.

“And” between values parts separate entries of the source, which are not always exact repeats. Identical values can stand only once.

On to `C=C1C[C@@]23CCC4[C@](C)(C(=O)OC5OC(CO)C(O)C(OC6OC(CO)C(O)C(O)C6O)C5OC5OC(CO)C(O)C(O)C5O)CCC[C@@]4(C)[C@@H]2CCC1(OC1OC(CO)C(O)C(OC2OC(CO)C(O)C(O)C2O)C1OC1OC(CO)C(O)C(O)C1O)C3` (stereo partly drawn) [Reb X, (13-[2-O-β-D-glucopyranosyl-3-O-β-D-glucopyranosyl-β-D-glucopyranosyl)oxy] ent kaur-16-en-19-oic acid-[2-O-β-D-glucopyranosyl-3-O-β-D-glycopyranosyl) ester], for which the “Taste properties compared to Reb A drink” value in test [1] (flavored zero caloric black tea drink, 250 ppm Reb X vs 250 ppm Reb A) is “much cleaner in finish with less sweetness linger and a more rounded overall sweetness profile”; in test [1] (zero calorie enhanced water drink, 200 ppm Reb X vs 200 ppm Reb A) it was “cleaner in finish and had reduced sweetness linger and a more rounded overall sweetness taste quality”. Besides, in test [1] (zero caloric orange-flavored sparkling beverage base), the “Reb X level closest in sweetness level to a 11.5 Brix high fructose corn syrup sweetened orange flavored sparkling beverage” value was 500 ppm and 550 ppm. For the same molecule, the “Taste compared to Reb A-containing formulations” value in test [1] (zero caloric orange-flavored sparkling beverage, Reb X 400 to 750 ppm in 50 ppm increments) is listed as “significantly better than comparable Reb A-containing formulations”. The “Perceived sweetness compared to Reb A” value in test [2] (setting [3]) was “higher sweetness of Reb X over Reb A is significant”. Also, the “Sweetness onset, non-sweet taste and bitterness lingering compared to Reb A” value in test [2] (setting [3]) is “faster sweetness onset, reduced non-sweet taste (bitterness, sour, astringency) and bitterness lingering”. Moreover, in test [2] (filtered water, room temperature, 34 panel members, FIG. 11), the “Bitterness, astringency and bitter lingering compared to Reb A” value was “reduced perception of bitterness, astringency and bitter lingering compared to Reb A”. Besides, the “Sweetness Factor (SF)” value with panel of trained tasters (Sweetness Equivalent (SE) 2.5%) was found to be 521; in the test with panel of trained tasters (Sweetness Equivalent (SE) 5.0%), 380; with panel of trained tasters (Sweetness Equivalent (SE) 7.5%), 295; with panel of trained tasters (setting [4]), 237. Also, the “Reb X Concentration (ppm) matching sucrose reference” value in the test with panel of trained tasters (Sweetness Equivalent (SE) 2.5%) amounted to 48 ppm; in the test on panel of trained tasters (Sweetness Equivalent (SE) 5.0%) it was 132 ppm; with panel of trained tasters (Sweetness Equivalent (SE) 7.5%) it was 254 ppm; in the test with panel of trained tasters (setting [4]), 422 ppm.
